Among the data in article PMC9964459, “Nornidulin, A New Inhibitor of Plasmodium falciparum Malate: Quinone Oxidoreductase (PfMQO) from Indonesian Aspergillus sp. BioMCC f.T.8501” (Pharmaceuticals, 2023) are IC50 values, retold here.

For this assay, the target named is T1, Plasmodium falciparum malate:quinone oxidoreductase (PfMQO) (Plasmodium falciparum, UniProt C6KT09).
T1 construct: gene PF3D7_0616800; PfMQO-membrane fraction from PfMQO-expressing recombinant Escherichia coli
T1 sequence (C6KT09 1-521): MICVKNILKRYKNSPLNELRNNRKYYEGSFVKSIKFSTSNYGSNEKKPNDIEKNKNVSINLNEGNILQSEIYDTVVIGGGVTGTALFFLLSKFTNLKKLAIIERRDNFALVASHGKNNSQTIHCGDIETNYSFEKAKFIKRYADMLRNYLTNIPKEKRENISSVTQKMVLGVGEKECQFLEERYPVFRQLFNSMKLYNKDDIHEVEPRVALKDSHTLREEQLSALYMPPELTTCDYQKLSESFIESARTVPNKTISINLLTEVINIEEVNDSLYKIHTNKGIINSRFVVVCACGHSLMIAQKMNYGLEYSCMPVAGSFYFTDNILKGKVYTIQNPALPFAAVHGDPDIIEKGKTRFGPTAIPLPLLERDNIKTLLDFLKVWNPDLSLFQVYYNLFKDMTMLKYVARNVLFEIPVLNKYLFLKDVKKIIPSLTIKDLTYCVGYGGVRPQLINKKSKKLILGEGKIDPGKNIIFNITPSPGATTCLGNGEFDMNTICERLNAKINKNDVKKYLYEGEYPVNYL
The assay is described as follows: DCIP-reduction enzyme assay (A600, malate/decylubiquinone) with recombinant PfMQO membrane fraction. The assay is classed as biochemical.

Consider `C/C=C(\C)c1c(Cl)c(O)c(C)c2c1Oc1c(Cl)c(O)c(Cl)c(C)c1C(=O)O2` [Fr10, nornidulin], for which the IC50 – broadly, the concentration that inhibits the measured activity by half – was 51 µM.
